Measured values reported in the METLIN SMRT retention time set (Domingo-Almenara et al. 2019).

Assay: gradient 5% acetonitrile 3 min, to 50% in 2 min, to 85% in 15 min, held 3 min, 100 µL/min
Conditions: column: Zorbax Extend-C18 2.1 x 50 mm; eluents: water / acetonitrile, 0.1% formic acid
Outline: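 Using water and acetonitrile that each contained 0.1% formic acid, mixtures of ~100 pure standards were separated at 100 μL/min on a Zorbax Extend-C18 column (2.1 × 50 mm, 1.8 μm). The HPLC fed a quadrupole time-of-flight mass spectrometer working in positive and negative ionization mode, with dead and dwell volumes of 40 μL and 900 μL. Data were acquired over 3 months. Retention time was read from computationally picked adduct peaks after manual inspection of each.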

## Cn1nccc1-c1cccc(-c2noc(-c3cccc(F)c3)n2)c1
  RP-LC retention time: 1150 s

## CCOc1ccc(CN2C[C@@H]3C(=O)N(Cc4ccc5c(c4)OCO5)C(=O)[C@@H]3C2)cc1
  RP-LC retention time: 658 s

## O=C(NCc1ccc(N2CCCCC2)nc1)C1CCCCC1
  RP-LC retention time: 616 s

## O=S(=O)(c1ccc(F)cc1)N1CCC2(CC1)NCCN=C2NCc1ccccc1F
  RP-LC retention time: 692 s

## O=C(NCc1ccccn1)C1CCCN(C(=O)NCc2cccs2)C1 (stereo not given)
  RP-LC retention time: 550 s

## CCCN1C(=O)C(CC(=O)NC2CCCCC2)Sc2ncccc21 (stereo not given)
  RP-LC retention time: 803 s

## CCCS(=O)(=O)N(C)C1CCc2nn(Cc3ccccc3)c(=O)n2CC1 (stereo not given)
  RP-LC retention time: 755 s

## Cn1c(=O)c(C(=O)N2CCN(c3ccccn3)CC2)nn(-c2ccc(Cl)cc2)c1=O
  RP-LC retention time: 663 s

## Cc1ccc2ncn(C3CCN(S(=O)(=O)c4cccc(F)c4)CC3)c(=O)c2c1
  RP-LC retention time: 909 s

## CCn1c(=O)c(N2CCC(C(=O)NCCN3CCCCCC3)CC2)nc2cccnc21
  RP-LC retention time: 646 s

## CCc1nc(-c2ccc(S(=O)(=O)N3CCC(C(=O)NCc4ccc5c(c4)OCO5)CC3)cc2)no1
  RP-LC retention time: 929 s

## Cc1ccc(CNc2nnc(N3CCOCC3)c3ccccc23)cc1
  RP-LC retention time: 678 s

## O=C(Nc1ccccc1F)C1CCCN(S(=O)(=O)Cc2ccccc2)C1 (stereo not given)
  RP-LC retention time: 950 s

## COc1ccc(-n2ncc3c(=O)n(Cc4nc(-c5ccc(OC(F)(F)F)cc5)no4)cnc32)cc1
  RP-LC retention time: 1100 s

## Cn1c(=O)c(N2CCC(NC(=O)NCc3ccccc3)CC2)nc2ccccc21
  RP-LC retention time: 799 s

## COc1ccc(-c2cc3nn(CC(=O)Nc4ccc(F)cc4Cl)c(=O)n3c(C)n2)cc1
  RP-LC retention time: 970 s

## Cc1cc(C(=O)N(Cc2ccco2)c2nc3ccccc3s2)on1
  RP-LC retention time: 1100 s

## CN(C)c1nc(Cl)nc2c1nc(Cl)n2C1CCCCO1 (stereo not given)
  RP-LC retention time: 1130 s

## O=C(NCc1cc(F)cc(F)c1)C1CCc2nc(N3CCCCC3)ncc2C1 (stereo not given)
  RP-LC retention time: 778 s

## CC(NC(=O)c1ccc2c(c1)CCCN2S(C)(=O)=O)c1ccccc1 (stereo not given)
  RP-LC retention time: 862 s

## Cc1nnc(C2CCCCCN2S(=O)(=O)c2cccnc2)o1 (stereo not given)
  RP-LC retention time: 691 s

## O=C(Cn1nc(C2CC2)cc1C(=O)N1CCCC1)N1CCN(c2ccc(Cl)cc2)CC1
  RP-LC retention time: 845 s

## CC1CCN(C(=O)C2=NN(CC(=O)OC(C)C)c3ccccc3S2(=O)=O)CC1
  RP-LC retention time: 952 s

## COc1ccc(NC(=O)c2noc3c2CCC3)cc1OC
  RP-LC retention time: 811 s

## COc1cc(/C=C2\SC(=O)N(CC(=O)Nc3nccs3)C2=O)cc(OC)c1OC
  RP-LC retention time: 777 s

## CN(c1cccc(NC(=O)C2CCN(S(=O)(=O)Cc3ccccc3)CC2)c1)S(C)(=O)=O
  RP-LC retention time: 806 s

## Cc1ccc(Cn2nc3c(S(=O)(=O)N4CCCCC4)cccn3c2=O)cc1
  RP-LC retention time: 925 s

## CCOC(=O)c1c(C)[nH]c(C(=O)N2CCCC(C(=O)N3CCOCC3)C2)c1C (stereo not given)
  RP-LC retention time: 672 s

## COc1ccc(CN2CCC(C3CCN(S(C)(=O)=O)CC3)C2)cc1OC (stereo not given)
  RP-LC retention time: 580 s

## CCCn1c(=O)c(C)nc2cc(-c3noc(-c4cccc(N(C)C)c4)n3)ccc21
  RP-LC retention time: 717 s

## COc1cc(NC(=O)NCCc2nc3cccnc3n2C2CCCC2)cc(OC)c1
  RP-LC retention time: 704 s

## CCn1ncc2ccc(C(=O)NC(C)C)cc21
  RP-LC retention time: 702 s

## CCc1cccc(NC(=O)c2cc3sccc3n2Cc2ccc(Cl)cc2)c1
  RP-LC retention time: 1340 s

## Cc1nc(-c2ccccc2)nc2c1CCC(=O)N2Cc1cccnc1
  RP-LC retention time: 673 s

## COc1ccc(-c2cc3nn(CC(=O)Nc4ccc(F)c(Cl)c4)c(=O)n3c(C)n2)cc1
  RP-LC retention time: 992 s

## COCCn1ccc2nc(C)c(C(=O)NCCc3c[nH]c4ccccc34)cc2c1=O
  RP-LC retention time: 767 s

## CCOc1ccccc1-c1nc(-c2ccc3ncn(CC)c3c2)no1
  RP-LC retention time: 788 s

## CCN1C=C(C(=O)OCc2c(C)noc2C)C(C)=NS1(=O)=O
  RP-LC retention time: 831 s

## CCOc1cccc(-c2noc(Cn3ccn4nc(-c5cccc(OC)c5)cc4c3=O)n2)c1
  RP-LC retention time: 770 s

## Cc1noc(C)c1CNC(=O)Cc1cccc(Cl)c1
  RP-LC retention time: 742 s

## CC1CCN(S(=O)(=O)c2cc(C(=O)N3CCN(c4ccccc4F)CC3)n(C)c2)CC1
  RP-LC retention time: 1050 s

## O=S(=O)(NCCCCN1CCOC(c2ccccc2)C1)c1ccc(F)cc1F (stereo not given)
  RP-LC retention time: 584 s

## Cc1nc(-c2cccc(N3CC(C(=O)N4CCCc5ccccc54)CC3=O)c2)no1 (stereo not given)
  RP-LC retention time: 783 s

## Cc1cc(NC(=O)C(=O)c2ccc[nH]2)ccc1Br
  RP-LC retention time: 1040 s

## CC(C)Cn1c(-c2cccc(C(=O)NCC3CCCO3)c2)nc2cccnc21 (stereo not given)
  RP-LC retention time: 699 s

## CN(C)CCNCc1ccc(-c2cc(Cl)cc(Cl)c2)o1
  RP-LC retention time: 597 s

## O=C(NCc1nnnn1C1CCCCC1)c1c(F)cccc1Cl
  RP-LC retention time: 763 s

## Cc1cc(C)nc(Nc2nc(-c3ccccc3)c3ccccc3n2)n1
  RP-LC retention time: 709 s

## COc1ccc(OC)c(NC(=O)NCC(=O)N2CCc3ccccc32)c1
  RP-LC retention time: 804 s

## O=C1CCCC(=O)N1CCS(=O)(=O)N1CCN(Cc2nc3ccccc3[nH]2)CC1
  RP-LC retention time: 554 s

## Cc1ccc(NC(=O)Cc2nnc(-c3cnccn3)o2)c(Cl)c1
  RP-LC retention time: 720 s

## CS(=O)(=O)Nc1ccc(C2(C(=O)NCc3ccc(F)c(Cl)c3)CCCCC2)cc1
  RP-LC retention time: 950 s

## CCOc1ccc(/C=C/C(=O)Nc2nc(-c3ccc4c(c3)N(CC)C(=O)CO4)cs2)cc1OC
  RP-LC retention time: 1020 s

## COc1ccc(CN2CC(C(=O)NC3(c4nc(C)no4)CCCCC3)CC2=O)cc1 (stereo not given)
  RP-LC retention time: 706 s

## COc1ccc(-c2cc3nn(CC(=O)Nc4ccc(C)cc4F)c(=O)n3c(C)n2)cc1
  RP-LC retention time: 963 s

## Cc1ccc(Cl)cc1NC(=O)N(C)CCO
  RP-LC retention time: 737 s

## CCOC(=O)Cc1c(CN2CCN(C)CC2)c2ccccc2n1Cc1ccccc1
  RP-LC retention time: 681 s

## CCc1ccc(S(=O)(=O)N2CCc3nc(-c4ccc(OC)cc4)ncc3C2)cc1
  RP-LC retention time: 1140 s

## O=C(CCC1CCCN(S(=O)(=O)c2cccc(F)c2)C1)NCC1CC1 (stereo not given)
  RP-LC retention time: 822 s

## CCOC(=O)c1csc(NC(=O)c2ccccc2[N+](=O)[O-])n1
  RP-LC retention time: 721 s

## Nn1nnc2ccccc21
  RP-LC retention time: 651 s

## CC(NC(=O)c1ccc2ncnc(N3CCCCC3)c2c1)c1ccc(F)cc1 (stereo not given)
  RP-LC retention time: 687 s

## O=C(NCc1ccccc1F)C1CCCN(c2cnc3nccnc3c2)C1 (stereo not given)
  RP-LC retention time: 680 s

## CCc1nn2c(CNC(=O)c3ccc(C)cc3)c(-c3ccccc3)nc2s1
  RP-LC retention time: 950 s

## CCS(=O)(=O)Nc1cc(-c2nnc(C(C)C)o2)sc1C
  RP-LC retention time: 863 s

## Cc1ccc(Cl)c(NC(=O)c2nc(C)oc2C)c1
  RP-LC retention time: 1140 s

## COc1cc(NC(=O)c2ncoc2-c2ccc(C)o2)cc(OC)c1OC
  RP-LC retention time: 920 s

## CCC(=O)Nc1c(C)noc1/C=C/c1ccc(S(=O)(=O)N2CCC(C)CC2)s1
  RP-LC retention time: 919 s

## Cn1c(=O)c(-c2ccc(C(=O)NCc3ccc4c(c3)OCO4)cc2)nc2cccnc21
  RP-LC retention time: 872 s

## COC(=O)c1ccc(Cl)cc1NC(=O)N(C)CCc1c(C)nn(C)c1C
  RP-LC retention time: 873 s

## Cc1cc(Cl)ccc1S(=O)(=O)N1CCC(OCc2noc(C3CCCO3)n2)CC1 (stereo not given)
  RP-LC retention time: 1030 s

## COC(=O)c1ccc2c(=O)n(-c3cccc(C)c3)c(N3CCCCC3)nc2c1
  RP-LC retention time: 1240 s

## CCC(CO)Nc1nc(NCc2ccccc2)c2ncn(C(C)C)c2n1 (stereo not given)
  RP-LC retention time: 630 s

## O=C(Nc1nnc(SCc2nnc(-c3cccc(F)c3)o2)s1)c1ccccc1
  RP-LC retention time: 887 s

## CC1(C)Cc2cccc(OCC(=O)NCC3CN(c4ccccc4)C(=O)O3)c2O1 (stereo not given)
  RP-LC retention time: 796 s

## COc1cccc(CNC(=O)Nc2c(-c3ccccc3)nc3ccccn23)c1
  RP-LC retention time: 653 s

## COc1ccc(C(=O)NCc2c(C)noc2C)cn1
  RP-LC retention time: 633 s

## O=C(NCCc1ccccc1)N1CCCn2nc(-c3cccs3)cc2C1
  RP-LC retention time: 805 s

## CCCS(=O)(=O)Nc1ccc(F)c(C(=O)c2c[nH]c3ncc(-c4ccc(Cl)cc4)cc23)c1F
  RP-LC retention time: 1130 s

## O=C1CN(C(=O)COc2cccc3ccccc23)c2ccccc2N1
  RP-LC retention time: 861 s

## Cc1cc(F)ccc1NC(=O)c1cnc2c(c1)c(=O)n(C)c(=O)n2-c1ccccc1
  RP-LC retention time: 854 s

## O=C(c1cc2ccccc2[nH]1)N1CCN(Cc2nc3ccccc3[nH]2)CC1
  RP-LC retention time: 576 s

## O=C(NCCc1ccc(Cl)cc1)c1nnc(-c2ccc(S(=O)(=O)N3CCCCC3)cc2)o1
  RP-LC retention time: 1110 s

## Cc1cc(N(C)C)nc(N2CCN(C(=O)c3ccc(Br)cc3)CC2)n1
  RP-LC retention time: 658 s

## O=S(=O)(NCc1ccc2[nH]c3c(c2c1)CCCC3)c1ccccc1
  RP-LC retention time: 600 s

## O=C(NCCCOc1cccc2cccnc12)c1c(F)cccc1F
  RP-LC retention time: 574 s

## COc1ccc(OC)c(Nc2c(-c3ccc(N(C)C)cc3)nc3cnccn23)c1
  RP-LC retention time: 796 s

## Cc1ccc(NC(=O)N2CCC(c3nc(C(=O)N4CCCC4)c(C)o3)CC2)cc1
  RP-LC retention time: 759 s

## CCOC(=O)C(C(=O)NCCCN1CCOCC1)C1CCCCC1 (stereo not given)
  RP-LC retention time: 624 s

## CCCS(=O)(=O)c1nc2ccc(NS(=O)(=O)c3cccc(F)c3)cc2s1
  RP-LC retention time: 918 s
